Measurements: US20130252331A1, “COMPOSITIONS AND METHODS FOR MODULATING METABOLISM” (priority 2010, published 2013)

Experiments:
3T3L1 cells = assay: Adipogenesis of 3T3L1 cells, Oil Red O staining for lipid accumulation; format: cell-based; conditions: 3T3L1 cells differentiated for eight days in increasing concentrations
From the text: FIG. 1 includes eight micrographs showing that the inhibition of BET protein family members blocks adipogenesis in a dose dependent manner in 3T3L1 cells, which is a cell line that is widely used as a model for adipogenesis. […] Following drug treatment cells were stained with Oil Red O as a measure of lipid accumulation that indicates the degree of adipocyte differentiation.
3T3L1 cells are a well characterized cell type that can be differentiated into fat cells that contain large lipid droplets. […] The cells were differentiated for eight days. On the final day, the cells were stained with Oil Red O, which stains for lipid accumulation in the cells.

PPARγ = PPARγ gene expression in 3T3L1 cells during adipocyte differentiation (RT-PCR); format: cell-based; conditions: 500 nM, first four days of differentiation
Experimental: (§1) C/EBPα and PPARγ are essential, positive regulators of adipogenesis. […] Results were obtained using RT-PCR.
(§2) Gene expression levels of two key proteins that function in fat cell differentiation, C/EBPα and PPARγ, were measured over the first four days of differentiation.

C/EBPα = C/EBPα gene expression in 3T3L1 cells during adipocyte differentiation (RT-PCR); format: cell-based; conditions: 500 nM, first four days of differentiation
Experimental: as §1, §2

C57B/6 male mice = assay: Insulin tolerance test in C57B/6 mice on high fat diet; format: in vivo, mouse
Experimental: FIG. 9B is a graph of the area under the curve (AUC) of the data in FIG. 9A.
8 week old C57B/6 male mice were started on a high fat diet containing 60% kcal fat. […] Body weight was measured every week. The mice were then examined for the degree of insulin resistance by insulin tolerance testing. […] Following insulin injection blood glucose was measured at the indicated time points.

ob/ob mice [1] = assay: Weight gain, food intake and feed efficiency in ob/ob mouse obesity model; format: in vivo; conditions: 50 mg/kg, 14 days
From the text: FIGS. 3A-3E are graphs showing that inhibition of BET family members blocks weight gain in ob/ob mice, a murine obesity model that lacks leptin.
Ob/ob mice are a well established mouse obesity model that gains weight rapidly on a normal mouse chow diet. […] Without wishing to be bound by theory, it is likely that the disparity is due to differences in the way that ob/ob mice treated with JQ are metabolizing food relative to untreated ob/ob mice.

ob/ob mice [2] = assay: Liver and subcutaneous fat weight and liver H&E histology in ob/ob mice
Experimental: The sections were stained with hematoxylin and eosin.
Five week old Ob/ob mice were treated with either vehicle (control) or a chemical inhibitor of the BET protein family (JQ) for approximately two weeks. Following treatment the mice were euthanized and organs were harvested and weighed. The weight of the livers and subcutaneous fat were determined.

[3] = Unspecified biological assay; conditions: assay not specified
[4] = system: genes that control fat accumulation in liver; assay: Liver RNA expression of genes that control fat accumulation in ob/ob mice; format: in vivo, mouse; conditions: two weeks of treatment
Experimental: Following treatment, the organs were harvested and liver RNA was isolated to measure gene expression profiles. The expression levels of a panel of genes that function in the control of fat accumulation in liver were measured.

[5] = approximately two weeks of treatment

## Cc1sc2c(c1C)C(c1ccc(Cl)cc1)=N[C@H](CC(=O)OC(C)(C)C)c1nnc(C)n1-2 [JQ (R) enantiomer]
3T3L1 cells
  adipogenesis / lipid accumulation (Oil Red O staining): no effect on the generation of lipid

## Cc1sc2c(c1C)C(c1ccc(Cl)cc1)=N[C@@H](CC(=O)OC(C)(C)C)c1nnc(C)n1-2 [JQ]
PPARγ
  induction of PPARγ expression: significantly blocked the induction
C/EBPα
  induction of C/EBPα expression: significantly blocked the induction
C57B/6 male mice; 7 weeks high fat diet and 50 mg/kg daily, 4 h fast, insulin 0.5 U/kg intraperitoneal
  blood glucose after insulin injection: sustained decrease in blood glucose up to 2 hours
C57B/6 male mice; 2 hour time course after insulin, p<0.05
  area under the curve for change in blood glucose: statistically significant decrease
ob/ob mice [1]
  food intake: mildly inhibited
  weight gain: blocked weight gain
ob/ob mice [2]; [5]
  liver weight: statistically significant reductions
  subcutaneous fat weight: statistically significant reductions
ob/ob mice [2]; two week treatment
  hepatic steatosis / liver histology (H&E): complete block in hepatic steatosis

## Cc1sc2c(c1C)C(c1ccc(Cl)cc1)=N[C@@H](CC(=O)OC(C)(C)C)c1nnc(C)n1-2 [JQ1 (S) enantiomer, (S)-tert-Butyl 2-(4-(4-chlorophenyl)-2,3,9-trimethyl-6H-thieno[3,2-f][1,2,4]triazolo[4,3-a][1,4]diazepin-6-yl)acetate]
3T3L1 cells
  adipogenesis / lipid accumulation (Oil Red O staining): inhibited lipid accumulation
3T3L1 cells; listed as JQ (S) enantiomer
  adipogenesis / lipid accumulation (Oil Red O staining): inhibited adipogenesis in a dose dependent manner

## Cc1sc2c(c1C)C(c1ccc(Cl)cc1)=N[C@@H](CC(=O)NN)c1nnc(C)n1-2 [Compound 3]
[3]
  activity in at least one biological assay: showed activity

## Cc1sc2c(c1C)C(c1ccc(Cl)cc1)=N[C@@H](CC(=O)N/N=C/c1ccc(O)cc1)c1nnc(C)n1-2 [Compound 4]
[3]
  activity in at least one biological assay: showed activity

## Cc1sc2c(c1C)C(c1ccc(Cl)cc1)=N[C@@H](CC(=O)OC(C)(C)C)c1nnc(C(F)(F)F)n1-2 [JQ11]
[4]
  liver expression of ACC beta: reduced the expression
  liver expression of DGAT: reduced the expression
  liver expression of FAS: not statistically significant
  liver expression of PPARγ2: reduced the expression
  liver expression of SCD1: reduced the expression
  liver expression of SREBP: reduced the expression
